The IC50 is the concentration that gives 50% inhibition.

Holding throughout (type): cell-based
Assay [1] addresses T1, Neuronal acetylcholine receptor; alpha3/beta4 (Homo sapiens, UniProt P30926+P32297). Kind of assay: Antagonist activity at alpha3beta4 nAChR (unknown origin) expressed in Xenopus laevis oocytes assessed as inhibition of Ach-induced channel activation at -100 mV holding potential treated for 1 min by two electrode voltage-clamp assay. A general note: Two-electrode voltage clamp holds a large cell at a set potential and records current.

Assay [2] has as its target T1, Neuronal acetylcholine receptor; alpha3/beta4. Kind of assay: Antagonist activity at alpha3beta4 nAChR (unknown origin) expressed in Xenopus laevis oocytes assessed as inhibition of Ach-induced channel activation at -100 mV holding potential treated for 1 min by two electrode voltage-clamp assay relative to PhTX-343 IC50.
The target in assay [3] is T2, Neuronal acetylcholine receptor; alpha4/beta2 (Homo sapiens, UniProt P17787+P43681). As to the kind of experiment: Antagonist activity at alpha4beta2 nAChR (unknown origin) expressed in Xenopus laevis oocytes assessed as inhibition of Ach-induced channel activation at -100 mV holding potential treated for 1 min by two electrode voltage-clamp assay relative to PhTX-343 IC50.

The target in assay [4] is T2, Neuronal acetylcholine receptor; alpha4/beta2. As to the kind of experiment: Antagonist activity at alpha4beta2 nAChR (unknown origin) expressed in Xenopus laevis oocytes assessed as inhibition of Ach-induced channel activation at -100 mV holding potential treated for 1 min by two electrode voltage-clamp assay.
The species entered for another assay is Homo sapiens. As to the kind of experiment: Selectivity ratio of IC50 for alpha4beta2 nAChR (unknown origin) expressed in Xenopus laevis oocytes to IC50 for alpha3beta4 nAChR (unknown origin) expressed in Xenopus laevis oocytes.

T2 sequence (P17787 whole entry): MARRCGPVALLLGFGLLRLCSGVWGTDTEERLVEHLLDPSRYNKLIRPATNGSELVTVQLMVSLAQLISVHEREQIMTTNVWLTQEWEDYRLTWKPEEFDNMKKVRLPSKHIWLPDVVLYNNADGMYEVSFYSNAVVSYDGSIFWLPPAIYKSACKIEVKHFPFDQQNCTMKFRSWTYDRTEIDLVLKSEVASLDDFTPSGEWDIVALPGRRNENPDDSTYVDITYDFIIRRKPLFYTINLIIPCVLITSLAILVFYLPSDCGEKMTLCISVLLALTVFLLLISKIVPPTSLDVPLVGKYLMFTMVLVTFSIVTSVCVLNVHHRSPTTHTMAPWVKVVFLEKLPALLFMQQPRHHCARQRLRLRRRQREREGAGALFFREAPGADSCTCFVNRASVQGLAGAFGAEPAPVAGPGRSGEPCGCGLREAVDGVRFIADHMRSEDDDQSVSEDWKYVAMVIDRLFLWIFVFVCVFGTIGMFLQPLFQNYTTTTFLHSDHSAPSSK
T2 sequence (P43681 whole entry): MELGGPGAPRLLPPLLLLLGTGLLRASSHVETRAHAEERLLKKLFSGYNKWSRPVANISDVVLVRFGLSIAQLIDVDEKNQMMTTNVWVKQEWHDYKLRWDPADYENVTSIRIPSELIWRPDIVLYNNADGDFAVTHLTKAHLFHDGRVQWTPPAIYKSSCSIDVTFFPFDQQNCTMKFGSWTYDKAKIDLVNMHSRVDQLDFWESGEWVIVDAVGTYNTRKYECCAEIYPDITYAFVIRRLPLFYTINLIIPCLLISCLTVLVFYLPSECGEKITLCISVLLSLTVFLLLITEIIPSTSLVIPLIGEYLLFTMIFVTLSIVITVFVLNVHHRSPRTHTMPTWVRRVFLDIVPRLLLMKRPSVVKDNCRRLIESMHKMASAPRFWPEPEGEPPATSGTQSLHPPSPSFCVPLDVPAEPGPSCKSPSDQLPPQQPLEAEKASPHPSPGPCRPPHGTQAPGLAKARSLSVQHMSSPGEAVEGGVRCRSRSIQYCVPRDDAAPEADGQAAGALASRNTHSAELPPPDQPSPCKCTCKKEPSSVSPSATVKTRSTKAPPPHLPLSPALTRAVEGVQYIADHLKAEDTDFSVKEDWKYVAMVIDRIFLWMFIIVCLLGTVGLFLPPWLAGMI
T1 sequence (P30926 whole entry): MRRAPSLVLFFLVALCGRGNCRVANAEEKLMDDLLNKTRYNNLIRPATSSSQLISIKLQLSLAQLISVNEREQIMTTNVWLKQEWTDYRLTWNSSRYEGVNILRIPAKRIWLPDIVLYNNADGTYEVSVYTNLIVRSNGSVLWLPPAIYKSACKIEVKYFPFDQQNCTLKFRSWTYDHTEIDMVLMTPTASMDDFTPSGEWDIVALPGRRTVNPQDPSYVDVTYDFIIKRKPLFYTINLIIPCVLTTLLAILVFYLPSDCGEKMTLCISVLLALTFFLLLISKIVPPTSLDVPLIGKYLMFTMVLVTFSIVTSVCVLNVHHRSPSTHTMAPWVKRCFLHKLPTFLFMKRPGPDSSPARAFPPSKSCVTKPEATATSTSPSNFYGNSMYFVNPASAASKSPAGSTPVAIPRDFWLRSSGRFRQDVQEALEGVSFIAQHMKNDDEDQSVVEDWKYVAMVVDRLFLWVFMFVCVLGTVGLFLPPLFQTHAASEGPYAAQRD
T1 sequence (P32297 whole entry): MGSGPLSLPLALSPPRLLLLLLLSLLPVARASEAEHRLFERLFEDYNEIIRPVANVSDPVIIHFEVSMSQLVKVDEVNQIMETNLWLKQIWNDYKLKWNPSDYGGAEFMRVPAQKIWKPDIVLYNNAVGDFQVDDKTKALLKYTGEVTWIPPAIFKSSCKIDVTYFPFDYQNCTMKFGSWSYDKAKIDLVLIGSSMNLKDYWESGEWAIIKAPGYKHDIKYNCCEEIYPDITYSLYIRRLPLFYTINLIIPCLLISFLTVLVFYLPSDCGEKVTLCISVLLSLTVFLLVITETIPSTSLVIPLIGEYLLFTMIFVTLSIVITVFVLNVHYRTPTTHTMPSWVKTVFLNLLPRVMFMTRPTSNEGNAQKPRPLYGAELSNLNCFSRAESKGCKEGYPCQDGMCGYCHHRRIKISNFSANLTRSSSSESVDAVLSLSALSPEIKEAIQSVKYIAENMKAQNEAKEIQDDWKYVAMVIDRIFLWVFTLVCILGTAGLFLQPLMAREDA

In the case of `NCCCNCCCCNCCCNC(=O)[C@H](CC1CCCCC1)NC(=O)C1CCC1`, the IC50 turned out to be 1.07 nM in assay [1] and 20.8 nM in assay [4]. Besides, the Ratio IC50 in assay [2] was 7.1; in assay [3], 3.9; in the assay filed under Homo sapiens it was 19.4.
For `NCCCNCCCCNCCCNC(=O)[C@H](CC1CCCCC1)NC(=O)Cc1cccc2ccccc12` the same measures were 0.16 nM, 14.6 nM, 47.8, 5.5 and 91.3.
Take `CCCC(=O)N[C@@H](Cc1ccc(O)cc1)C(=O)NCCCNC[C@@H]1C[C@H]1CNCCCN`: the results for the IC50 in assay [1] and in assay [4] were 0.92 nM and 44.3 nM, respectively. Also, the Ratio IC50 in assay [2] was 8.3; in assay [3] it was 1.8; in the assay listed under Homo sapiens, 48.2.
For `NCCCNCCCCNCCCNC(=O)[C@H](CC1CCCCC1)NC(=O)C1CCCCC1` the same measures were 2.19 nM, 31.4 nM, 3.5, 2.6 and 14.3.
Regarding `CCCC(=O)N[C@@H](CCc1ccccc1)C(=O)NCCCNCCCCNCCCN`, the IC50 in assay [1] worked out at 1.74 nM; in assay [4], 20.8 nM. The Ratio IC50 was found to be 4.4 in assay [2], 3.9 in assay [3] and 12 in the assay listed under Homo sapiens.
With `NCCCNCCCCNCCCNC(=O)[C@H](CC1CCCCC1)NC(=O)c1ccc(-c2ccccc2)cc1`, the values for the IC50 in assay [1] and in assay [4] were 2.83 nM and 25.8 nM, respectively. Further, the results for the Ratio IC50 (in assay [2]; in assay [3]; in the assay listed under Homo sapiens) were 2.7, 3.1 and 9.1, respectively.
As to `NCCCNCCCCNCCCNC(=O)[C@H](CC1CCCCC1)NC(=O)C1CCCCCC1`, the figures for the IC50 in assay [1] and in assay [4] were 0.55 nM and 28.2 nM, respectively. The figures for the Ratio IC50 (in assay [2]; in assay [3]; in the assay listed under Homo sapiens) were 13.9, 2.8 and 51.3, respectively.
For `CCCC(=O)N[C@@H](CC1CCCCC1)C(=O)NCCCNCCCCNCCCN` the same measures were 2.62 nM, 2.58 nM, 2.9, 31.1 and 1.
As to `CCCC(=O)N[C@@H](Cc1ccccc1)C(=O)NCCCNCCCCNCCCN`, the figures for the IC50 in assay [1] and in assay [4] were 0.93 nM and 27.8 nM, respectively. Also, the Ratio IC50 was determined as 8.2 in assay [2], 2.9 in assay [3] and 29.9 in the assay filed under Homo sapiens.
For `NCCCNCCCCNCCCNC(=O)[C@H](Cc1ccc(O)cc1)NC(=O)C1CCCC1` the same measures were 0.57 nM, 22.5 nM, 13.4, 3.6 and 39.5.
For `NCCCNCCCCNCCCNC(=O)[C@H](Cc1ccc(O)cc1)NC(=O)C1CCCCC1` the same measures were 0.46 nM, 36.6 nM, 16.6, 2.2 and 79.6.
For `NCCCNCCCCNCCCNC(=O)[C@H](CC1CCCCC1)NC(=O)C1CC1` the same measures were 2.63 nM, 112 nM, 2.9, 0.7 and 42.6.
`CCCC(=O)N[C@@H](Cc1ccc(O)cc1)C(=O)NCCCNCCCCNCCCN` [PHILANTHOTOXIN 343]: the figures for the IC50 in assay [1] and in assay [4] were 7.65 nM and 80.2 nM, respectively. Also, in the assay listed under Homo sapiens, the Ratio IC50 came to 10.5.
For the molecule `NCCCNCCCCNCCCNC(=O)[C@H](CC1CCCCC1)NC(=O)c1ccccc1`, the IC50 in assay [1] was determined as 0.37 nM; in assay [4], 21.4 nM. For the same molecule, the Ratio IC50 stood at 20.7 in assay [2], 3.7 in assay [3] and 57.8 in the assay listed under Homo sapiens.
For `CCCC(=O)N[C@@H](Cc1ccc(O)cc1)C(=O)NCCCNC[C@H]1C[C@H]1CNCCCN` the same measures were 1.44 nM, 47.4 nM, 5.3, 1.7 and 32.9.
For the molecule `NCCCNCCCCNCCCNC(=O)[C@H](CC1CCCCC1)NC(=O)CC1CC2CCC1C2` (stereo partly drawn), the results for the IC50 in assay [1] and in assay [4] were 0.95 nM and 25.6 nM, respectively. Also, the figures for the Ratio IC50 (in assay [2]; in assay [3]; in the assay listed under Homo sapiens) were 8.1, 3.1 and 26.9, respectively.
For `NCCCNCCCCNCCCNC(=O)[C@H](CC1CCCCC1)NC(=O)C1CCCC1` the same measures were 0.65 nM, 5.43 nM, 11.8, 14.8 and 8.4.
For `NCCCNCCCCNCCCNC(=O)[C@H](CC1CCCCC1)NC(=O)/C=C/c1ccccc1` the same measures were 0.35 nM, 12.1 nM, 21.9, 6.6 and 34.6.

The values above are taken from ChEMBL document CHEMBL4359833, “Philanthotoxin Analogues That Selectively Inhibit Ganglionic Nicotinic Acetylcholine Receptors with Exceptional Potency” (J Med Chem, 2019).
